Assay results published in patent US20050009840A1 (SUGEN, INC., priority 2003, published 2005).
pIC50: −log10 of the molar value. Where a name gives a salt, the structure may show the parent alone.

molecular target: T1, Met kinase domain (GST fusion protein) (Homo sapiens, UniProt P08581); experiment: Met transphosphorylation assay (ELISA, poly(glu-tyr) substrate); format: biochemical; conditions: read-out: Met IC50;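 further: Cell-free ELISA with plate-bound poly(Glu:Tyr 4:1) phosphorylated by GST-fused Met kinase domain plus ATP and Mn2+, phosphotyrosine detected by anti-phosphotyrosine antibody with HRP and ABTS read-out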
T1 construct: Purified GST fusion protein containing the Met kinase domain
T1 sequence (P08581 1078-1345 limits assumed): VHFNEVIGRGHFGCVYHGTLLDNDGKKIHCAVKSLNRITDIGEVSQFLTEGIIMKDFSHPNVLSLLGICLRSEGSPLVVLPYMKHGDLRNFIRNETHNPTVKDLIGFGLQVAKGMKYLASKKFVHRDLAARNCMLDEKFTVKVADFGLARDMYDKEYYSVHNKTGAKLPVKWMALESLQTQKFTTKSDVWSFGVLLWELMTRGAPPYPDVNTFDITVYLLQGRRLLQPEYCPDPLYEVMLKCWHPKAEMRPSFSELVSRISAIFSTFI

**Q.** With `CC(Oc1nc(-c2cccc(C(=O)N3CCN(C)CC3)c2)cnc1N)c1c(Cl)cccc1Cl` (stereo not drawn) [II-181, (3-{5-Amino-6-[1-(2,6-dichloro-phenyl)-ethoxy]-pyrazin-2-yl}-phenyl)-(4-methyl-piperazin-1-yl)-methanone] as the compound, how does the pIC50 read?
**A.** The pIC50 was 6.60.

**Q.** How did the pIC50 turn out when `CC(Oc1nc(-c2ccc(NC(=O)NCCN3CCOCC3)cc2)cnc1N)c1c(F)ccc(F)c1Cl` (stereo not drawn) [II-182, 1-(4-{5-Amino-6-[1-(2-chloro-3,6-difluoro-phenyl)-ethoxy]-pyrazin-2-yl}-phenyl)-3-(2-morpholin-4-yl-ethyl)-urea] was run?
**A.** Its pIC50 is 6.74.

**Q.** `CC(Oc1nc(-c2ccc(NC(=O)N3CCC[C@@H]3CN3CCCC3)cc2)cnc1N)c1c(F)ccc(F)c1Cl` (stereo partly drawn) [II-183, (R)-2-Pyrrolidin-1-ylmethyl-pyrrolidin-1-carboxylic acid (4-{5-amino-6-[1-(2-chloro-3,6-difluoro-phenyl)-ethoxy]-pyrazin-2-yl}-phenyl)-amide] was tested. Which pIC50 did it give?
**A.** The pIC50 was 6.68.

**Q.** With `CC(Oc1nc(-c2ccc(NC(=O)NCCN3CCCC3)cc2)cnc1N)c1c(F)ccc(F)c1Cl` (stereo not drawn) [II-184, 1-(4-{5-Amino-6-[1-(2-chloro-3,6-difluoro-phenyl)-ethoxy]-pyrazin-2-yl}-phenyl)-3-(2-pyrrolidin-1-yl-ethyl)-urea] as the compound, how does the pIC50 read?
**A.** The pIC50 was 6.74.

**Q.** How did the pIC50 turn out when `CC(Oc1nc(-c2ccc(NC(=O)N3CCN(C)CC3)cc2)cnc1N)c1c(F)ccc(F)c1Cl` (stereo not drawn) [II-185, 4-Methyl-piperazin-1-carboxylic acid (4-{5-amino-6-[1-(2-chloro-3,6-difluoro-phenyl)-ethoxy]-pyrazin-2-yl}-phenyl)-amide] was run?
**A.** Its pIC50 is 7.00.

**Q.** How did the pIC50 turn out when `CC(Oc1nc(-c2ccc(NC(=O)NCCO)cc2)cnc1N)c1c(F)ccc(F)c1Cl` (stereo not drawn) [II-186, 1-(4-{5-Amino-6-[1-(2-chloro-3,6-difluoro-phenyl)-ethoxy]-pyrazin-2-yl}-phenyl)-3-(2-hydroxy-ethyl)-urea] was run?
**A.** The pIC50 was 6.68.

**Q.** `CC(Oc1nc(-c2ccc(NC(=O)N3CC[C@H](N)C3)cc2)cnc1N)c1c(F)ccc(F)c1Cl` (stereo partly drawn) [II-187, (S)-3-Amino-pyrrolidine-1-carboxylic acid (4-{5-amino-6-[1-(2-chloro-3,6-difluoro-phenyl)-ethoxy]-pyrazin-2-yl}-phenyl)-amide] was tested. Which pIC50 did it give?
**A.** The pIC50 was 7.09.

**Q.** With `CC(Oc1nc(-c2ccc(NC(=O)NC3CCN(C)CC3)cc2)cnc1N)c1c(F)ccc(F)c1Cl` (stereo not drawn) [II-188, 1-(4-{5-Amino-6-[1-(2-chloro-3,6-difluoro-phenyl)-ethoxy]-pyrazin-2-yl}-phenyl)-3-(1-methyl-piperidin-4-yl)-urea] as the compound, how does the pIC50 read?
**A.** Its pIC50 is 7.27.

**Q.** How did the pIC50 turn out when `CC(Oc1nc(-c2ccc(NC(=O)N3CCN(C)CC3)cc2)cnc1N)c1c(Cl)ccc(F)c1Cl` (stereo not drawn) [II-189, 4-Methyl-piperazine-1-carboxylic acid (4-{5-amino-6-[1-(2,6-dichloro-3-fluoro-phenyl)-ethoxy]-pyrazin-2-yl}-phenyl)-amide] was run?
**A.** Its pIC50 is 7.13.

**Q.** `CC(Oc1nc(-c2ccc(NC(=O)NCCO)cc2)cnc1N)c1c(Cl)ccc(F)c1Cl` (stereo not drawn) [II-190, 1-(4-{5-Amino-6-[1-(2,6-dichloro-3-fluoro-phenyl)-ethoxy]-pyrazin-2-yl}-phenyl)-3-(2-hydroxy-ethyl)-urea] was tested. Which pIC50 did it give?
**A.** The pIC50 was 6.55.

**Q.** `CC(Oc1nc(-c2ccc(NC(=O)N3CC[C@H](N)C3)cc2)cnc1N)c1c(Cl)ccc(F)c1Cl` (stereo partly drawn) [II-191, (S)-3-Amino-pyrrolidine-1-carboxylic acid (4-{5-amino-6-[1-(2,6-dichloro-3-fluoro-phenyl)-ethoxy]-pyrazin-2-yl}-phenyl)-amide] was tested. Which pIC50 did it give?
**A.** The pIC50 was 5.52.

**Q.** With `CC(Oc1nc(-c2ccc(NC(=O)NC3CCN(C)CC3)cc2)cnc1N)c1c(Cl)ccc(F)c1Cl` (stereo not drawn) [II-192, 1-(4-{5-Amino-6-[1-(2,6-dichloro-3-fluoro-phenyl)-ethoxy]-pyrazin-2-yl}-phenyl)-3-(1-methyl-piperidin-4-yl)-urea] as the compound, how does the pIC50 read?
**A.** Its pIC50 is 7.28.

**Q.** With `CN1CCN(C(=O)c2ccc(-c3cnc(N)c(OCc4c(F)ccc(F)c4Cl)n3)s2)CC1` [II-194, {5-[5-Amino-6-(2-chloro-3,6-difluoro-benzyloxy)-pyrazin-2-yl]-thiophen-2-yl)(4-methyl-piperazin-1-yl)-methanone] as the compound, how does the pIC50 read?
**A.** Its pIC50 is 6.21.

**Q.** `Nc1ncc(-c2ccc(C(=O)N3CCC(N4CCCC4)CC3)s2)nc1OCc1c(F)ccc(F)c1Cl` [II-195, {5-[5-Amino-6-(2-chloro-3,6-difluoro-benzyloxy)-pyrazin-2-yl]-thiophen-2-yl}-(4-pyrrolidin-1-yl-piperidin-1-yl)-methanone] was tested. Which pIC50 did it give?
**A.** Its pIC50 is 6.29.

**Q.** `C[C@@H]1CN(C(=O)c2ccc(-c3cnc(N)c(OCc4c(F)ccc(F)c4Cl)n3)s2)C[C@H](C)N1` [II-196, {5-[5-Amino-6-(2-chloro-3,6-difluoro-benzyloxy)-pyrazin-2-yl]-thiophen-2-yl}-((3R,5S)-3,5-dimethyl-piperazin-1-yl)-methanone] was tested. Which pIC50 did it give?
**A.** The pIC50 was 6.26.

**Q.** `Nc1ncc(-c2ccc(C(=O)N3CCC[C@@H]3CN3CCCC3)s2)nc1OCc1c(F)ccc(F)c1Cl` [II-197, {5-[5-Amino-6-(2-chloro-3,6-difluoro-benzyloxy)-pyrazin-2-yl]-thiophen-2-yl}-((R)-2-pyrrolidin-1-ylmethyl-pyrrolidin-1-yl)-methanone] was tested. Which pIC50 did it give?
**A.** The pIC50 was 6.10.

**Q.** With `Nc1ncc(-c2ccc(C(=O)NCCN3CCOCC3)s2)nc1OCc1c(F)ccc(F)c1Cl` [II-198, 5-[5-Amino-6-(2-chloro-3,6-difluoro-benzyloxy)-pyrazin-2-yl]-thiophene-2-carboxylic acid (2-morpholin-4-yl-ethyl)-amide] as the compound, how does the pIC50 read?
**A.** The pIC50 was 6.15.

**Q.** How did the pIC50 turn out when `CC(Oc1nc(-c2ccc(C(=O)N3CCN(C)CC3)cn2)cnc1N)c1c(Cl)ccc(F)c1Cl` (stereo not drawn) [II-199, 3-[1-(2,6-dichloro-3-fluoro-phenyl)ethoxy]-5-{5-[(4-methylpiperazin-1-yl)carbonyl]-pyridin-2-yl}pyrazin-2-amine trifluoroacetate] was run?
**A.** The pIC50 was 6.82.

**Q.** `CC(Oc1nc(-c2ccncc2)cnc1N)c1c(Cl)ccc(F)c1Cl` (stereo not drawn) [II-200, 3-[1-(2,6-Dichloro-3-fluoro-phenyl)-ethoxy]-5-pyridin-4-yl-pyrazin-2-ylamine] was tested. Which pIC50 did it give?
**A.** The pIC50 was 7.35.

**Q.** `CC(Oc1nc(-c2ccc[nH]2)cnc1N)c1c(Cl)ccc(F)c1Cl` (stereo not drawn) [II-201, 3-[1-(2,6-Dichloro-3-fluoro-phenyl)-ethoxy]-5-(1H-pyrrol-2-yl)-pyrazin-2-ylamine] was tested. Which pIC50 did it give?
**A.** Its pIC50 is 6.66.

**Q.** How did the pIC50 turn out when `CC(Oc1nc(-c2ccc(C(=O)N3CCN(C)CC3)cn2)cnc1N)c1c(Cl)ccc(F)c1Cl` (stereo not drawn) [II-202, (6-{5-Amino-6-[1-(2,6-dichloro-3-fluoro-phenyl)-ethoxy]-pyrazin-2-yl}-pyridin-3-yl)-(4-methyl-piperazin-1-yl)-methanone] was run?
**A.** The pIC50 was 6.82.

**Q.** With `CC(Oc1nc(-c2cc(C(=O)N3CCN(C)CC3)ccn2)cnc1N)c1c(Cl)ccc(F)c1Cl` (stereo not drawn) [II-203, (2-{5-Amino-6-[1-(2,6-dichloro-3-fluoro-phenyl)-ethoxy]-pyrazin-2-yl}-pyridin-4-yl)-(4-methyl-piperazin-1-yl)-methanone] as the compound, how does the pIC50 read?
**A.** Its pIC50 is 6.74.

**Q.** With `CC(Oc1nc(-c2cccc(C(=O)N3CCN(C)CC3)n2)cnc1N)c1c(Cl)ccc(F)c1Cl` (stereo not drawn) [II-204, (6-{5-Amino-6-[1-(2,6-dichloro-3-fluoro-phenyl)-ethoxy]-pyrazin-2-yl}-pyridin-2-yl)-(4-methyl-piperazin-1-yl)-methanone] as the compound, how does the pIC50 read?
**A.** The pIC50 was 6.66.

**Q.** With `CC(Oc1nc(-c2cncc(C(=O)N3CCN(C)CC3)c2)cnc1N)c1c(Cl)ccc(F)c1Cl` (stereo not drawn) [II-205, (5-{5-Amino-6-[1-(2,6-dichloro-3-fluoro-phenyl)-ethoxy]-pyrazin-2-yl}-pyridin-3-yl)-(4-methyl-piperazin-1-yl)-methanone] as the compound, how does the pIC50 read?
**A.** The pIC50 was 7.00.

**Q.** How did the pIC50 turn out when `CC(Oc1nc(-c2ccnc(C(=O)N3CCN(C)CC3)c2)cnc1N)c1c(Cl)ccc(F)c1Cl` (stereo not drawn) [II-206, (4-{5-Amino-6-[1-(2,6-dichloro-3-fluoro-phenyl)-ethoxy]-pyrazin-2-yl}-pyridin-2-yl)-(4-methyl-piperazin-1-yl)-methanone] was run?
**A.** The pIC50 was 7.00.

**Q.** `CC(Oc1nc(-c2cncc(C(=O)NCCN3CCOCC3)c2)cnc1N)c1c(Cl)ccc(F)c1Cl` (stereo not drawn) [II-208, 5-{5-Amino-6-[1-(2,6-dichloro-3-fluoro-phenyl)-ethoxy]-pyrazin-2-yl}-N-(2-morpholin-4-yl-ethyl)-nicotinamide] was tested. Which pIC50 did it give?
**A.** The pIC50 was 7.42.

**Q.** `CC(Oc1nc(-c2cncc(C(=O)NCCCN3CCOCC3)c2)cnc1N)c1c(Cl)ccc(F)c1Cl` (stereo not drawn) [II-210, 5-{5-Amino-6-[1-(2,6-dichloro-3-fluoro-phenyl)-ethoxy]-pyrazin-2-yl}-N-(3-morpholin-4-yl-propyl)-nicotinamide] was tested. Which pIC50 did it give?
**A.** The pIC50 was 7.66.
